# Measurements: US20070276011A1, “Plasminogen Activator Inhibitor-1 Inhibitor” (priority 2003, published 2007)
# Molecular target: recombinant human PAI-1 (Homo sapiens, UniProt P05121)
# Assay: PAI-1 inhibitory activity, Test Method A (tPA fluorogenic substrate, Tris buffer pH8.0, 37 C)
# Type: biochemical
# Conditions: 25 μM test compound; Test Method A
# Protocol: To this solution, 50 μL solution of 400 μM fluogenic substrate for tPA (Pyr-Gly-Arg-MCA, Peptide Institute, Inc.) adjusted with the same buffer was added, and reacted for 30 minutes at 37° C. The reaction was stopped by adding 50 μL of 2% acetic acid. Fluorescence was measured at the excitation wavelength=360 nm, emission wavelength=460 or 465 nm using a microplate reader (SPECTRAFLUOR or GENios) by TECAN. The fluorescence intensities in the presence of the PAI-1 as the control (DMSO) or in the absence of the PAI-1 (tPA alone) were taken as 100% and 0% of PAI-1 activities, respectively, and inhibitory ratios of PAI-1 activities in the presence of the test compound were obtained.
# <Composition of the Tris Buffer (pH8.0)>
# Sequence of recombinant human PAI-1 (P05121 24-402): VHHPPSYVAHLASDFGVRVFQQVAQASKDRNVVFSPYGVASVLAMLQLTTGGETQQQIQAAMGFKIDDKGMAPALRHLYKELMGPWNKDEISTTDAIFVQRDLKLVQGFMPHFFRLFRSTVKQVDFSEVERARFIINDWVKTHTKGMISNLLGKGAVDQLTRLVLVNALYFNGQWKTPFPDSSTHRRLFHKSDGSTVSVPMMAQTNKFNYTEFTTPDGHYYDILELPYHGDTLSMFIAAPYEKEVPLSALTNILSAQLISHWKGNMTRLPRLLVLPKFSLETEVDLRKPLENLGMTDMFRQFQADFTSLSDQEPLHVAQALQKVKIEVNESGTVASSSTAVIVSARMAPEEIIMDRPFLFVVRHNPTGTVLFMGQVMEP
row,Compound,Inhibitory Ratio at 25 μM (%)
1,"COc1cc(C=C2SC(=O)N(Cc3ccc(Cl)c(Cl)c3)C2=O)cc([N+](=O)[O-])c1O [compound 346, 5-(3-methoxy-4-hydroxy-5-nitrobenzylidene)-3-(3,4-dichlorobenzyl)thiazolidine-2,4-dione]",>99%
2,O=C1SC(=Cc2cc([O-])c([O-])c(O)c2)C(=O)N1Cc1ccc(Cl)c(Cl)c1.[Na+].[Na+] [compound 338],85%
3,"O=C1SC(=Cc2ccc(O)c(O)c2)C(=O)N1Cc1cc(C(F)(F)F)ccc1C(F)(F)F [compound 305, 5-(3,4-Dihydroxybenzylidene)-3-[2,5-bis(trifluoromethyl)benzyl]-thiazolidine-2,4-dione]",>99%
4,O=C1SC(=Cc2ccc([O-])c([O-])c2)C(=O)N1Cc1ccc(Cl)cc1Cl.[Na+].[Na+] [compound 339],>99%
5,COc1cc(C=C2SC(=O)N(Cc3ccc(Cl)c(Cl)c3)C2=O)cc(OC)c1OC [compound 348],44%
6,"O=C1SC(=Cc2cc(C=Cc3ccccc3)ccc2O)C(=O)N1Cc1ccc(Cl)c(Cl)c1 [compound 322, 5-(2-Hydroxy-5-styrylbenzylidene)-3-(3,4-dichlorobenzyl)thiazolidine-2,4-dione]",89%
7,"COc1ccc(COC(=O)c2cc(C=C3SC(=O)N(Cc4ccc(-c5ccccc5)cc4)C3=O)ccc2O)cc1 [compound 362, 5-[3-(4-Methoxybenzyloxycarbonyl)-4-hydroxybenzylidene]-3-(4-phenylbenzyl)thiazolidine-2,4-dione]",>99%
8,O=C(Nc1cccc([N+](=O)[O-])c1)c1cc(C=C2SC(=O)N(Cc3ccc(Cl)c(Cl)c3)C2=O)ccc1O [compound 424],87%
9,"COc1ccc(NC(=O)c2cc(C=C3SC(=O)N(Cc4ccc(Cl)c(Cl)c4)C3=O)ccc2O)cc1 [compound 353, 5-[4-hydroxy-3-(4-methoxyphenylcarbamoyl)benzylidene]-3-(3,4-dichlorobenzyl)thiazolidine-2,4-dione]",66%
10,"COc1ccc(C)c(NC(=O)c2cc(C=C3SC(=O)N(Cc4ccc(Cl)c(Cl)c4)C3=O)ccc2O)c1 [compound 450, 5-[4-hydroxy-3-(2-methyl-5-methoxyphenylcarbamoyl)-benzylidene]-3-(3,4-dichlorobenzyl)thiazolidine-2,4-dione]",87%
11,O=C(Nc1cc(C(F)(F)F)ccc1[N+](=O)[O-])c1cc(C=C2SC(=O)N(Cc3ccc(Cl)c(Cl)c3)C2=O)ccc1O [compound 466],>99%

# Second part, the compound after the results:
row,Inhibitory Ratio at 25 μM (%),Compound
1,80%,"COc1cc(C=C2C(=O)N(c3cc(Cl)cc(Cl)c3)N=C2C(C)C)cc(Br)c1O [compound 539, 4-(3-Methoxy-4-hydroxy-5-bromobenzylidene)-1-(3,5-dichlorophenyl)-3-isopropyl-2-pyrazolin-5-one]"
2,50%,"CC(C)C1=NN(c2ccc([N+](=O)[O-])cc2)C(=O)C1=Cc1cc(C=Cc2ccccc2)ccc1O [compound 531, 4-(21-Hydroxy-5-styrylbenzylidene)-1-(4-nitrophenyl)-3-isopropyl-2-pyrazolin-5-one]"
3,69%,COC(=O)c1ccc(NC(=O)c2cc(C=C3SC(=O)N(Cc4ccc(Cl)c(Cl)c4)C3=O)ccc2O)cc1O [compound 437]
4,81%,O=C(Nc1ccc(O)c(O)c1)c1cc(C=C2SC(=O)N(CCc3ccc(Cl)cc3)C2=O)ccc1O [compound 377]
5,37%,"COC(=O)c1c(O)cc(C=C2SC(=O)N(Cc3ccc(Cl)cc3Cl)C2=O)cc1O [compound 342, 5-[3,5-Dihydroxy-4-(methoxycarbonyl)benzylidene]-3-(2,4-dichlorobenzyl)thiazolidine-2,4-dione]"
6,>99%,COc1cc(C=C2SC(=O)N(Cc3ccc(Cl)c(Cl)c3)C2=O)cc(C(=O)Nc2ccc(O)c(C)c2)c1O [compound 361]
7,75%,CCOC1=NN(c2ccc([N+](=O)[O-])cc2)C(=O)C1=Cc1c(Br)ccc(O)c1O [compound 551]
8,63%,O=C1SC(=Cc2ccc(Cl)c(O)c2)C(=O)N1Cc1ccc(Cl)c(Cl)c1 [compound 328]
9,21%,COc1ccc(C=C2SC(=O)N(Cc3ccc(Cl)c(Cl)c3)C2=O)cc1O [compound 323]

# Same assay, conditions: test compound 25 μM; Test Method A
row,Compound,Inhibitory Ratio at 25 μM (%)
1,"O=C1SC(=Cc2cc(Br)cc(Br)c2O)C(=O)N1Cc1cc(C(F)(F)F)cc(C(F)(F)F)c1 [compound 2, 5-(3,5-Dibromo-2-hydroxybenzylidene)-3-[3,5-bis(trifluoromethyl)benzyl]-thiazolidine-2,4-dione]",52%
2,O=C(O)c1cccc(N2N=C(C(F)(F)F)C(=Cc3ccc(-c4cc(Cl)cc(Cl)c4)o3)C2=O)c1 [compound 218],95%
3,O=C(O)c1cccc(N2N=C(c3ccccc3)C(=Cc3ccc(-c4cc(Cl)cc(Cl)c4)o3)C2=O)c1 [compound 216],94%
4,"O=C1SC(=Cc2cccc(O)c2O)C(=O)N1Cc1ccc([N+](=O)[O-])cc1 [compound 51, 5-(2,3-dihydroxybenzylidene)-3-(4-nitrobenzyl)thiazolidine-2,4-dione]",86%

# Continued, values first:
row,Inhibitory Ratio at 25 μM (%),Compound
1,79%,"CC(C)C1=NN(c2ccc(Cl)nc2)C(=O)C1=Cc1cc(O)c(O)cc1O [compound 222, 4-(2,4,5-Trihydroxybenzylidene)-1-(2-chloropyridin-5-yl)-3-isopropyl-2-pyrazolin-5-one]"
2,32%,CC1=NN(c2cccc(C(=O)O)c2)C(=O)C1=Cc1ccc(-c2cccc([N+](=O)[O-])c2)o1 [compound 193]
3,>99%,CC(C)C1=NN(c2cc(Cl)cc(Cl)c2)C(=O)C1=Cc1cc(Br)cc(Br)c1O [compound 105]
4,67%,"O=C1SC(=Cc2ccc(O)c(O)c2)C(=O)N1Cc1cccc([N+](=O)[O-])c1 [compound 48, 5-(3,4-Dihydroxybenzylidene)-3-(3-nitrobenzyl)thiazolidine-2,4-dione]"
5,68%,O=C1SC(=Cc2ccc(O)c(O)c2O)C(=O)N1Cc1ccc(Cl)c(Cl)c1 [compound 29]
6,>99%,"Cc1cc(C)cc(CN2C(=O)SC(=Cc3cccc(O)c3O)C2=O)c1 [compound 26, 5-(2,3-Dihydroxybenzylidene)-3-(3,5-dimethylbenzyl)thiazolidine-2,4-dione]"
7,>99%,O=C1SC(=Cc2ccc(O)c(O)c2)C(=O)N1Cc1ccc(Br)cc1 [compound 37]
8,>99%,CC(C)(C)c1cc(CN2C(=O)SC(=Cc3ccc(O)c(O)c3)C2=O)cc(C(C)(C)C)c1O [compound 14]
9,62%,O=C1C(=Cc2ccc(O)c(O)c2O)C(c2ccccc2)=NN1c1ccc(Cl)c(Cl)c1 [compound 148]
10,>99%,O=C1SC(=Cc2ccc(O)c(O)c2)C(=O)N1Cc1ccc(C(F)(F)F)cc1 [compound 44]
11,>99%,"COC(=O)c1cccc(C=C2C(=O)N(c3cc(Cl)cc(Cl)c3)N=C2C(C)C)c1 [compound 204, 4-[3-(methoxycarbonyl)benzylidene]-1-(3,5-dichlorophenyl)-3-isopropyl-2-pyrazolin-5-one]"
